# Measurements taken from patent EP0099122A2, “Compositions comprising pepstatin and an histamine H2-receptor antagonist having an enhanced antiulcer activity” (Bristol-Myers Company, priority 1982, dated 1984).
# “Also recorded” adds a separate entry of the source. Square brackets hold non-standard residues; d marks the D form. Peptide text beside a SMILES is read from it. * marks the point of attachment. Sta = CC(C)C[C@H](N)[C@@H](O)CC(=O)O; Isovaleryl = CC(C)CC(=O)*
# Columns and labels:
# [1] = cited from earlier work
# pylorus ligated rat [2] = conditions: pylorus ligated (Shay) rat, Umezawa et al.; cited from earlier work
# [3] = tested on: pepsin activity in the gastric juice of swine; conditions: added to the feed at >50 ppm; cited from earlier work
# gastric ulcer = conditions: 100 mg doses seven times a day versus placebo; cited from earlier work
# duodenal ulcer = conditions: 100 mg doses seven times a day versus placebo; cited from earlier work
# gastric peptic activity = conditions: patients with ulcer dyspepsia, cited from earlier work
# pepsin = conditions: 100 mg doses seven times a day, ulcer patients; cited from earlier work
# pylorus ligated rat [4] = assay: Pylorus ligated (Shay) rat; assay type: in vivo; conditions: 20 mg/kg po, 18 hour pylorus ligated rat, previous studies of the applicant
# Description: The role of the proteolytic enzyme, pepsin, in the etiology of ulceration is not completely understood. […] It is also possible that pepsin is entirely responsible for the erosions and that the acid produces pain and retards healing. • 1) Umezawa, H. et al., in J. Antibiotics, 23, 259-262 (1970), disclose the pentapeptide, pepstatin, which has the structure [drawing 4] and which is a specific complexing agent for the enzyme pepsin. […] Pepstatin was administered in 100 mg doses, given seven aimes a day, this dosage being sufficient to inhibit the peptic activity of gastric juice for 18 hours a day. […] J. Gastroent., 14, 929-932 (1979), report the results of a double-blind randomized clinical trial of pepstatin versus placebo in patients having gastric ulcer. Pepstatin was administered in 100 mg doses seven times a day. […] When the two agents were given together, significant ulcer reduction was found after only one-half day of predosing. Carbenoxolone is not an antisecretory or anti-pepsin agent, but acts by stimulating gastric mucus synthesis. • 6) Dajani, E. Z. et al., in J. Pharmacol. Exp. Ther., 210, 373-377 (1979), disclose that, in stress ulceration tests in rats, a combination of cimetidine and propantheline bromide produced synergistic antiulcer activity and that a combination of cimetidine and thiopropazate hydrochloride produced additive antiulcer activity. […]
# [5] = all animal species studied; cited from earlier work
compound,measurement,setting,value
"CC(C)CC(=O)N[C@H](C(=O)N[C@H](C(=O)N[C@@H](CC(C)C)[C@@H](O)CC(=O)N[C@@H](C)C(=O)N[C@@H](CC(C)C)[C@@H](O)CC(=O)O)C(C)C)C(C)C [Pepstatin, pepstatin] (Isovaleryl-VV[Sta]A[Sta]-OH)",excreted in the feces,"[1]; oral administration, animal studies, within 72 hours",more than 90%
same,absorption upon oral administration,[1]; oral,essentially unabsorbed; also recorded: only poorly absorbed
same,formation of stomach ulcers,pylorus ligated rat [2],prevent the formation of stomach ulcers
same,occurrence of ulcers,[3],prevented the occurrence of ulcers
same,pepsin activity in the gastric juice,[3],inhibited pepsin activity in the gastric juice of swine
same,healing or symptomatology of gastric ulcer,gastric ulcer,not able to detect any influence of pepstatin
same,healing or symptomatology of duodenal ulcer,duodenal ulcer,no significant difference between pepstatin and placebo
same,side effects,gastric peptic activity; daily oral doses of 700 mg for up to three months,no side effects were observed
same,gastric acidity,gastric peptic activity,has no effect on the gastric acidity
same,gastric peptic activity,gastric peptic activity,inhibits gastric peptic activity
same,time for which pepsin activity was inhibited,pepsin,18 hours a day
same,pepsin activity,pylorus ligated rat [4],completely inhibited pepsin activity
same,ulcer formation,pylorus ligated rat [4],antagonized ulcer formation
same,LD50,[5],exceeded 3000 mg/kg
